The text below walks through data of patent US5155121A, “Phenylsulphonamide substituted pyridinealkene- and aminooxyalkanecarboxylic acid derivatives” (Bayer Aktiengesellschaft, priority 1990, dated 1992).

The assay has as its system platelet aggregation. Put plainly: Platelet aggregation-inhibiting action (TAI), collagen-induced, turbidometric, in platelet-rich citrate plasma. The format is cell-based. The note with it: Homo sapiens, 0.1 h, range of the minimum effective concentration, PRP from healthy donors, 37° C., 6 minutes, read-out: TAI threshold concentration. The method, then:
Blood from healthy donors of both sexes was used for the determination of the platelet aggregation-inhibiting action. As an anticoagulant, 9 parts of blood were admixed to one part of 3.8% strength aqueous sodium citrate solution. Platelet-rich citrate plasma (PRP)^1 is obtained from this blood by means of centrifugation (Jurgens/Beller, Klinische Methoden der Blutgerinnungsanalyse (Clinical Methods of Blood Coagulation Analysis); Thieme Verlag, Stuttgart, 1959).
For these investigations, 0.8 ml of (PRP)^1 and 0.1 ml of the active compound solution were preincubated in a water bath at 37° C. The platelet aggregation was then determined by the turbidometric method (Born, G.V.R., J. Physiol. (London), 162, 67, 1962) in an aggregometer at 37° C. (Therapeutische Berichte 47, 80-86, 1975). To this end, 0.1 ml of collagen, an aggregation-inducing agent, was added to the preincubated sample. The change in the optical density in the sample of the (PRP) was recorded during a period of 6 minutes and the result was determined after 6 minutes. To do this, the percentage inhibition was calculated compared to the control.
The range of the minimum effective concentration was given as the threshold concentration.

For `O=C(O)CCCCC=C(c1cccnc1)c1cccc(NS(=O)(=O)c2ccc(Cl)cc2)c1` (mixture of isomers) [Example XV], the minimal effective concentration lay in the range of 3 to 10 µg/mL.

For `O=C(O)CCCCON=C(c1cccnc1)c1cccc(NS(=O)(=O)c2ccc(Cl)cc2)c1` (mixture of isomers) [Example I, (E/Z)-5-[[[3-Pyridinyl-3-(4-chlorophenylsulphonamido)phenyl]methylene]iminooxy]pentanecarboxylic acid], the minimal effective concentration was 0.3 to 1 µg/mL.

Take `O=C(O)CCCCCC(c1cccnc1)c1cccc(NS(=O)(=O)c2ccc(Cl)cc2)c1` (stereo not drawn) [XXVI]: the minimal effective concentration is 0.1 to 0.3 µg/mL.

Consider `O=C(O)CCCCON=C(c1cccnc1)c1cccc(NS(=O)(=O)c2ccc(F)cc2)c1` [II], for which the minimal effective concentration lay in the range of 1 to 3 µg/mL.

On to `O=C(O)CCCCCON=C(c1cccnc1)c1cccc(NS(=O)(=O)c2ccc(Cl)cc2)c1` [XII], for which the minimal effective concentration was in the range of 1 to 3 µg/mL.

Turning to `O=C(O)CCCCCCON=C(c1cccnc1)c1cccc(NS(=O)(=O)c2ccc(Cl)cc2)c1` (mixture of isomers) [XIII, (E/Z)-7-[[[3-Pyridinyl-3-(4-chlorophenylsulphonamido)phenyl]methylene]iminooxy]heptane-carboxylic acid], the minimal effective concentration is greater than 10 µg/mL.
